# Source: patent US10869931B2, “Polyethylene glycol-modified angiogenesis inhibitor HM-1 and application thereof” (NANJING ANJI BIOLOGICAL TECHNOLOGY CO.,LTD, priority 2016, dated 2020)
# Marks after values point to notes of the source that are not given here. Where no end group is shown, it is not given here.
# How the values were obtained:
# [1] = tested on: Colorectal cancer tumor cells; assay: MTT proliferation inhibition, colorectal cancer cells; type: cell-based, human; design: concentration or dose not given beside the values; settings: 48 h
# Procedure: (§1) The activity of mPEG-HM-1 to inhibit the growth of various tumor cells was examined by MTT assay. The tumor cells were cultured to a concentration of 90% or more in a 37° C., 5% CO2 incubator and collected by trypsinization. The cells were resuspended in the culture medium and counted under a microscope to adjust the cell concentration to 2×10^4 cells/mL, the cell suspension was inoculated into a 96-well plate at 100 μL/well and incubated overnight at 37° C. in a 5% CO2 incubator. mPEG-HM-1 was diluted with the culture solution to each predetermined concentration. Docetaxel is diluted to the final concentration with the culture medium. After the cells were fully attached, each dilution was added to a 96-well plate (100 μL/well). The mPEG-HM-1 dilution was added as a drug-administered group, and docetaxel was added as a positive control group, and a culture solution without any drug was used as a negative control group. Incubate for 48 h at 37° C. in a 5% CO2 incubator. 5 mg/mL of MTT was added to a 96-well plate at 20 μL per well, and incubation was continued for 4 hours. The medium was aspirated, dissolved in 150 μL of DMSO per well, and gently mixed by shaking for 10 min. The absorbance was measured at a measurement wavelength of 570 nm and a reference wavelength of 630 nm using a microplate reader, and the rate of growth inhibition (proliferation inhibition, PI) was calculated. The formula is as follows: PI (%)=1−administration group/negative group
# (§2) The test was repeated 3 times independently, and the results obtained by the test were expressed as mean±SD, and the test results are shown in Table 15 to Table 18.
# [2] = tested on: Human Umbilical Vein Endothelial Cells (HUVEC); assay: Transwell migration of HUVEC; type: cell-based; settings: 24 h
# Procedure: 10 mg/mL Matrigel was diluted 1:2 with HUVEC-specific medium, spread on a transwell chamber membrane, and air-dried at room temperature. HUVEC cells cultured in logarithmic growth phase were digested with trypsin digest, collected, washed twice with PBS, and resuspended in blank HUVECs-specific medium. The cells were counted under a microscope, and the cell concentration was adjusted to 1×10^5/mL. The test solutions of each group were prepared and diluted to 100 μL with a blank HUVECs-specific medium. The cells were seeded into a transwell chamber at 100 μL per well, and each set of test solution was added to the chamber. The cell culture was stimulated by adding 0.6 mL of endothelial cell culture medium containing 5% fetal bovine serum and 1% ECGS into a 24-well plate, and cultured at 5% CO2 for 24 hour at 37° c. Discard the culture medium in the well, fix it with 90% alcohol at room temperature for 30 minutes, 0.1% crystal violet for 10 min at room temperature, rinse with water, gently wipe off the unsprayed cells in the upper layer with a cotton swab, observe under microscope and select four fields to take pictures. Calculate migration inhibition (MI) according to the formula: […]
# Ntest was the number of cell migration in the test group, and Ncontrol was the number of cell migration in the blank control group.
# The test was repeated 3 times independently. The results obtained from the test were calculated as mean±SD, and a statistical T test was performed. *P<0.05 was a significant difference, and **P<0.01 was a very significant difference.
# [3] = tested on: Melanoma tumor cells; assay: MTT proliferation inhibition, melanoma cells; type: cell-based, human; design: concentration or dose not given beside the values; settings: 48 h
# Procedure: as §1, §2
# [4] = tested on: adjuvant arthritis (AA) SD rats; assay: Adjuvant arthritis (AA) rat model; type: in vivo; settings: for Joint swelling / Left and right paw swelling / Clinical score: AA SD rats; for Clinical score: maximum score 16
# [5] = tested on: carrageenan-induced toe swelling in SD rats; assay: Carrageenan-induced acute toe swelling in rats; type: in vivo, rat; design: Swelling: unit not given here
# Procedure: SD rats were divided into blank model group, dexamethasone-positive group (5 mg/kg) and mPEG-HM-1 test group. The drug was administered once a day, and the model group was given the same volume of normal saline for 3 days and fed normally. At the first hour after the last administration, 0.1 mL of 1% carrageenan was injected subcutaneously into the right hind paw of the rats to induce inflammation. The volume of the foot was measured at 1 h, 3 h, 5 h, and 7 h after inflammation. The degree of swelling of the foot was calculated according to the following formula: the degree of swelling of the foot (mL)=the volume of the foot after inflammation−the volume before inflammation. Record the number of milliliters of spilled liquid (method: use the ballpoint pen to circle as the measurement mark at the protruding point of the right joint, and then put the right hind foot of each mouse into the volume measuring device, so that the hind limb is exposed outside the cylinder, and the depth of the immersion was determined by coinciding the circle with the liquid surface. After the foot enters the liquid, the liquid level rises, and the volume of the overflow liquid is the volume of the right hind foot of the rat, and the normal volume of the right hind foot of each mouse is sequentially determined).
# [6] = tested on: Pancreatic cancer tumor cells; assay: MTT proliferation inhibition, pancreatic cancer cells; type: cell-based, human; design: concentration or dose not given beside the values; settings: 48 h
# Procedure: as §1, §2
# [7] = tested on: Thyroid cancer tumor cells; assay: MTT proliferation inhibition, thyroid cancer cells; type: cell-based, human; design: concentration or dose not given beside the values; settings: 48 h
# Procedure: as §1, §2
# [8] = tested on: Gastric cancer tumor cells; assay: MTT proliferation inhibition, gastric cancer cells; type: cell-based, human; design: concentration or dose not given beside the values; settings: 48 h
# Procedure: as §1, §2
# [9] = tested on: retinal neovascular clusters in OIR C57/B16 mice; assay: Retinal blood vessels in OIR mice; type: in vivo, mouse; settings: for Neovascular clusters area: retina evaluated on day 17; for Inhibition rate: neovascular clusters area vs control, day 17
# Source text: Establishment of the OIR model: Exposure of young mouse and their mothers to 75% hyperoxic environment from day 7 to day 12 after birth of C57/B16 mice caused rapid disappearance of capillaries in the central retina. Upon returning to the indoor air on the 12th day, the retinal blood vessels, upon exposing to hyperoxia, rapidly disappeared, causing extensive abnormal neovascularization, and the central portion of the retina remained largely avascular for a long time. After the blood vessels disappeared completely, on the 13th day, physiological saline (negative control group), mPEG-SC-HM-1, mPEG2-NHS-HM-1, mPEG-ALD10k-HM-1, and mPEG-bALD-HM-1, were administered by intravitreal injection and retinal vessels were evaluated on day 17 (to label unclosed vessels, […] of Texas Red-labeled tomato lectin was injected into the left ventricle and circulated for 5 min).
# [10] = tested on: Bladder Cancer tumor cells; assay: MTT proliferation inhibition, bladder cancer cells; type: cell-based, human; design: concentration or dose not given beside the values; settings: 48 h
# Procedure: as §1, §2
# [11] = 10 mg/kg subcutaneous once every three days
# [12] = 20 mg/kg once a day for 3 days, 1 h after carrageenan
# [13] = 20 mg/kg once a day for 3 days, 3 h after carrageenan
# [14] = 20 mg/kg once a day for 3 days, 5 h after carrageenan
# [15] = 20 mg/kg once a day for 3 days, 7 h after carrageenan
# [16] = 25 μg intravitreal injection on day 13
# [17] = 20 mg/kg subcutaneous once every three days
# [18] = 80 mg/kg subcutaneous once every three days
Substance,rate of growth inhibition [1] [%],cell migration number (Mean ± SD) ([2]; 30 μg/mL),inhibition rate of HUVEC migration ([2]; 30 μg/mL) [%*],cell migration number (Mean ± SD) ([2]; 40 μg/mL),inhibition rate of HUVEC migration ([2]; 40 μg/mL) [%],cell migration number (Mean ± SD) ([2]; 50 μg/mL),inhibition rate of HUVEC migration ([2]; 50 μg/mL),cell migration number (Mean ± SD) ([2]; 60 μg/mL),inhibition rate of HUVEC migration ([2]; 60 μg/mL),rate of growth inhibition [3] [%],"Joint swelling [4, 11] [mm]","Left and right paw swelling [4, 11] [mm]","Clinical score [4, 11]","Swelling [5, 12]","Swelling [5, 13]","Swelling [5, 14]",rate of growth inhibition [6] [%],rate of growth inhibition [7] [%],rate of growth inhibition [8] [%],rate of growth inhibition [10] [%],other results
mPEG2-NHS5k-Arg-Gly-Ala-Asp-Arg-Ala-Gly-Gly-Gly-Gly-Arg-Gly-Asp ({mPEG2‑NHS 5 kDa}-RGADRAGGGGRGD) [mPEG2-NHS5k-HM-1],52.37 ± 12.24,611.33 ± 58.92,41.03,516.16 ± 48.34,50.21,475.01 ± 50.90,54.18%,590.29 ± 50.72,43.06%*,59.21 ± 18.93,0.73 ± 0.16,3.91 ± 0.73,5.92 ± 1.04,0.22 ± 0.11,0.32 ± 0.21,0.36 ± 0.12,46.58 ± 13.12,36.23 ± 12.15,50.31 ± 13.29,38.64 ± 12.72,"Swelling ([5]; 10 mg/kg once a day for 3 days, 1 h after carrageenan): 0.25 ± 0.13; Swelling ([5]; 10 mg/kg once a day for 3 days, 3 h after carrageenan): 0.36 ± 0.12; Swelling ([5]; 10 mg/kg once a day for 3 days, 5 h after carrageenan): 0.43 ± 0.17; Swelling ([5]; 10 mg/kg once a day for 3 days, 7 h after carrageenan): 0.31 ± 0.15; Swelling [5, 15]: 0.32 ± 0.16; Neovascular clusters area [9, 16]: 0.119 ± 0.007 mm^2; Inhibition rate ([9]; 25 μg intravitreal): 46.35%*"
mPEG2-NHS10k-Arg-Gly-Ala-Asp-Arg-Ala-Gly-Gly-Gly-Gly-Arg-Gly-Asp ({mPEG2‑NHS 10 kDa}-RGADRAGGGGRGD) [mPEG2-NHS10k-HM-1],55.78 ± 15.77,–,–,–,–,603.97 ± 40.36,41.74%*,506.83 ± 46.25,51.11%,65.89 ± 20.57,–,–,–,0.24 ± 0.12,0.37 ± 0.16,0.42 ± 0.16,50.23 ± 14.26,40.47 ± 12.03,55.67 ± 13.53,43.78 ± 10.16,"cell migration number (Mean ± SD) ([2]; 70 μg/mL): 410.53 ± 48.64; inhibition rate of HUVEC migration ([2]; 70 μg/mL): 60.40%; cell migration number (Mean ± SD) ([2]; 80 μg/mL): 563.02 ± 56.22; inhibition rate of HUVEC migration ([2]; 80 μg/mL): 45.69%*; Joint swelling [4, 17]: 0.69 ± 0.19 mm; Left and right paw swelling [4, 17]: 3.80 ± 0.73 mm; Clinical score [4, 17]: 5.53 ± 1.09; in vivo immune protection effect on adjuvant arthritis model (in words) ([4]; AA rats, subcutaneous, once every three days, vs model group): has the most significant effect; Swelling [5, 15]: 0.30 ± 0.12; Swelling ([5]; 40 mg/kg once a day for 3 days, 1 h after carrageenan): 0.21 ± 0.10; Swelling ([5]; 40 mg/kg once a day for 3 days, 3 h after carrageenan): 0.31 ± 0.17; Swelling ([5]; 40 mg/kg once a day for 3 days, 5 h after carrageenan): 0.35 ± 0.11; Swelling ([5]; 40 mg/kg once a day for 3 days, 7 h after carrageenan): 0.33 ± 0.15; inhibition of carrageenan-induced toe swelling (in words) ([5]; rats, 40 mg/kg, once a day for 3 days): most effective; Neovascular clusters area ([9]; 50 μg intravitreal injection on day 13): 0.100 ± 0.006 mm^2; Inhibition rate ([9]; 50 μg intravitreal): 54.63%**; inhibition rate of retinal neovascular clusters ([9]; OIR mice, 50 μg intravitreal injection, evaluated day 17): 54.63%"
mPEG-bALD5k-Arg-Gly-Ala-Asp-Arg-Ala-Gly-Gly-Gly-Gly-Arg-Gly-Asp ({mPEG‑bALD 5 kDa}-RGADRAGGGGRGD) [mPEG-bALD5k-HM-1],59.35 ± 12.64,654.96 ± 52.07,40.03,545.96 ± 45.32,50.01,489.28 ± 46.98,55.20%,577.96 ± 58.76,47.08%*,65.62 ± 20.35,0.73 ± 0.18,3.94 ± 0.65,5.92 ± 1.11,–,–,–,53.14 ± 10.34,42.19 ± 10.35,56.87 ± 14.41,36.03 ± 10.12,"Neovascular clusters area [9, 16]: 0.108 ± 0.008 mm^2; Inhibition rate ([9]; 25 μg intravitreal): 51.17%**"
mPEG-bALD40k-Arg-Gly-Ala-Asp-Arg-Ala-Gly-Gly-Gly-Gly-Arg-Gly-Asp ({mPEG‑bALD 40 kDa}-RGADRAGGGGRGD) [mPEG-bALD40k-HM-1],66.90 ± 16.27,–,–,–,–,–,–,–,–,73.10 ± 20.55,–,–,–,–,–,–,62.85 ± 18.74,45.53 ± 12.98,68.65 ± 16.93,43.82 ± 10.31,"cell migration number (Mean ± SD) ([2]; 90 μg/mL): 652.01 ± 52.63; inhibition rate of HUVEC migration ([2]; 90 μg/mL): 40.30%*; cell migration number (Mean ± SD) ([2]; 100 μg/mL): 523.03 ± 60.52; inhibition rate of HUVEC migration ([2]; 100 μg/mL): 52.11%; cell migration number (Mean ± SD) ([2]; 110 μg/mL): 545.63 ± 46.84; inhibition rate of HUVEC migration ([2]; 110 μg/mL): 50.04%; cell migration number (Mean ± SD) ([2]; 120 μg/mL): 596.64 ± 50.46; inhibition rate of HUVEC migration ([2]; 120 μg/mL): 45.37%*; Joint swelling [4, 18]: 0.74 ± 0.18 mm; Left and right paw swelling [4, 18]: 3.81 ± 0.62 mm; Clinical score [4, 18]: 5.78 ± 1.05; Neovascular clusters area ([9]; 200 μg intravitreal injection on day 13): 0.110 ± 0.012 mm^2; Inhibition rate ([9]; 200 μg intravitreal): 50.31%**"
